Measurements from BindingDB's records for doi:10.1021/acs.jmedchem.9b00882 (Shenyang Pharmaceutical University, 2019).
Starred links: 1 amine or outer side, 2 acyl side, 3 side chain; linkers in the order of their positions; H or OH if unused. Positions of bridges follow the written chain, without caps; N, C: chain ends. Non-standard residues stand in square brackets, D forms with d. Residues, ends and D or L forms follow the SMILES beside them. ξ: configuration not given here. mXylylene = c1cc(C[*:1])cc(C[*:2])c1; ξhCys = NC(CCS)C(=O)O

Assays:
[1] = Inhibition of HIV1 gp41-induced cell-cell fusion between viral envelope expressing human HL2/3 cells to CD4/CCR5 receptor expressing TZM-bl cells after 6 hrs by luciferase assay
[2] = Inhibition of HIV1 gp41-induced cell-cell fusion between viral envelope expressing human HL2/3 cells to CD4/CCR5 receptor expressing TZM-bl cells at 4:1 compound to HP23 ratio incubated for 6 hrs by luciferase reporter gene assay
[3] = target: Envelope glycoprotein gp160 (Human immunodeficiency virus 1, UniProt Q6QLK5); assay: Inhibition of HIV1 gp41-induced cell-cell fusion between viral envelope expressing human HL2/3 cells to CD4/CCR5 receptor expressing TZM-bl cells after 6 hrs by luciferase assay
[4] = Inhibition of HIV1 gp41-induced cell-cell fusion between viral envelope expressing human HL2/3 cells to CD4/CCR5 receptor expressing TZM-bl cells at 2:1 ratio of hCS6ERE to compound incubated for 6 hrs by luciferase reporter gene assay
[5] = Inhibition of HIV1 gp41-induced cell-cell fusion between viral envelope expressing human HL2/3 cells to CD4/CCR5 receptor expressing TZM-bl cells at 1:1 ratio of hCS6ERE to compound incubated for 6 hrs by luciferase reporter gene assay
[6] = Inhibition of HIV1 gp41-induced cell-cell fusion between viral envelope expressing human HL2/3 cells to CD4/CCR5 receptor expressing TZM-bl cells at 4:1 ratio of hCS6ERE to compound incubated for 6 hrs by luciferase reporter gene assay

Sequence of Envelope glycoprotein gp160 (Q6QLK5 whole entry, the tested form may be a part): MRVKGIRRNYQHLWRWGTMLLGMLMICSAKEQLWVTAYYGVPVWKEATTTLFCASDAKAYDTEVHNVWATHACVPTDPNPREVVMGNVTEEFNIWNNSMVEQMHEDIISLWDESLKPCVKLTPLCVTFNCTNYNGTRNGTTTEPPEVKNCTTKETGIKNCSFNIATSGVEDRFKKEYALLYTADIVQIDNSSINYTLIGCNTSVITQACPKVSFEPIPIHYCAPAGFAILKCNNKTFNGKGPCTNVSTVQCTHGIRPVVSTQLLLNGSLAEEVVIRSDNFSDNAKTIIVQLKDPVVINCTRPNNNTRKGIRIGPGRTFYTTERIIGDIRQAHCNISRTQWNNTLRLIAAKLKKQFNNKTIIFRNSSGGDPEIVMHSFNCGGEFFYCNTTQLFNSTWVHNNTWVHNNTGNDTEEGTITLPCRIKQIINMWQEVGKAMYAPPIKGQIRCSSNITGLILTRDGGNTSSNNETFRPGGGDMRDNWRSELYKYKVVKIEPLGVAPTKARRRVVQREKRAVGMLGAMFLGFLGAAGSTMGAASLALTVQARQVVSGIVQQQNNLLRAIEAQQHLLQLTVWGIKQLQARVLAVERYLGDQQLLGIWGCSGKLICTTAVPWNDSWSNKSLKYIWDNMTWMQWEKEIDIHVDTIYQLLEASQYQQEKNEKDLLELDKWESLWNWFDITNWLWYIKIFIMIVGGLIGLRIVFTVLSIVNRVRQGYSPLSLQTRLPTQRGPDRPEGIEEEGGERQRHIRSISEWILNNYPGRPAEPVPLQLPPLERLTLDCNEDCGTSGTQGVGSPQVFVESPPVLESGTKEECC

EC50 [1] [µM] | Molecule | further results
0.123 | CC[C@H](C)[C@H](NC(C)=O)C(=O)N[C@@H](CCC(=O)O)C(=O)N[C@@H](C)C(=O)N[C@@H](CC(C)C)C(=O)N[C@H](C(=O)N[C@@H](CCCNC(=N)N)C(=O)N[C@@H](C)C(=O)N[C@@H](C)C(=O)N[C@@H](CCC(N)=O)C(=O)N[C@@H](CCC(=O)O)C(=O)N[C@@H](CCC(N)=O)C(=O)N[C@@H](CCC(N)=O)C(=O)N[C@@H](CCC(=O)O)C(=O)N[C@@H](CCCCN)C(=O)N[C@@H](CC(N)=O)C(=O)N[C@@H](CCC(=O)O)C(=O)N[C@H]1CSCc2cccc(c2)CSC[C@@H](C(=O)N[C@@H](CC(C)C)C(N)=O)NC(=O)[C@H](CCCNC(=N)N)NC(=O)[C@H](CC(C)C)NC(=O)[C@H](C)NC1=O)[C@@H](C)CC (Ac-IEALIRAAQEQQEKNECALRCL-NH2; linker 17-21 via mXylylene) | –
0.147 | CC[C@H](C)[C@H](NC(C)=O)C(=O)N[C@H]1CSCc2cccc(c2)CSC[C@@H](C(=O)N[C@@H](C)C(=O)N[C@@H](C)C(=O)N[C@@H](CCC(N)=O)C(=O)N[C@@H](CCC(=O)O)C(=O)N[C@@H](CCC(N)=O)C(=O)N[C@@H](CCC(N)=O)C(=O)N[C@@H](CCC(=O)O)C(=O)N[C@@H](CCCCN)C(=O)N[C@@H](CC(N)=O)C(=O)N[C@@H](CCC(=O)O)C(=O)N[C@@H](C)C(=O)N[C@@H](C)C(=O)N[C@@H](CC(C)C)C(=O)N[C@@H](CCCNC(=N)N)C(=O)N[C@@H](CCC(=O)O)C(=O)N[C@@H](CC(C)C)C(N)=O)NC(=O)[C@H]([C@@H](C)CC)NC(=O)[C@H](CC(C)C)NC(=O)[C@H](C)NC1=O (Ac-ICALICAAQEQQEKNEAALREL-NH2; linker 2-6 via mXylylene) | –
0.096 | CC[C@H](C)[C@H](NC(C)=O)C(=O)N[C@@H](CCC(=O)O)C(=O)N[C@@H](C)C(=O)N[C@@H](CC(C)C)C(=O)N[C@H](C(=O)N[C@H]1CSCc2cccc(c2)CSC[C@@H](C(=O)N[C@@H](CCC(N)=O)C(=O)N[C@@H](CCC(N)=O)C(=O)N[C@@H](CCC(=O)O)C(=O)N[C@@H](CCCCN)C(=O)N[C@@H](CC(N)=O)C(=O)N[C@@H](CCC(=O)O)C(=O)N[C@@H](C)C(=O)N[C@@H](C)C(=O)N[C@@H](CC(C)C)C(=O)N[C@@H](CCCNC(=N)N)C(=O)N[C@@H](CCC(=O)O)C(=O)N[C@@H](CC(C)C)C(N)=O)NC(=O)[C@H](CCC(N)=O)NC(=O)[C@H](C)NC(=O)[C@H](C)NC1=O)[C@@H](C)CC (Ac-IEALICAAQCQQEKNEAALREL-NH2; linker 6-10 via mXylylene) | –
0.034 | CC[C@H](C)[C@H](NC(C)=O)C(=O)N[C@@H](CCC(=O)O)C(=O)N[C@@H](C)C(=O)N[C@@H](CC(C)C)C(=O)N[C@H](C(=O)NC1CCSCc2cccc(c2)CSCCC(C(=O)N[C@@H](CCC(N)=O)C(=O)N[C@@H](CCC(N)=O)C(=O)N[C@@H](CCC(=O)O)C(=O)N[C@@H](CCCCN)C(=O)N[C@@H](CC(N)=O)C(=O)N[C@@H](CCC(=O)O)C(=O)N[C@@H](C)C(=O)N[C@@H](C)C(=O)N[C@@H](CC(C)C)C(=O)N[C@@H](CCCNC(=N)N)C(=O)N[C@@H](CCC(=O)O)C(=O)N[C@@H](CC(C)C)C(N)=O)NC(=O)[C@H](CCC(N)=O)NC(=O)[C@H](C)NC(=O)[C@H](C)NC1=O)[C@@H](C)CC (some centres not stated) (Ac-IEALI[ξhCys]AAQ[ξhCys]QQEKNEAALREL-NH2; linker 6-10 via mXylylene) | –
0.214 | CC[C@H](C)[C@H](NC(C)=O)C(=O)N[C@@H](CCC(=O)O)C(=O)N[C@@H](C)C(=O)N[C@@H](CC(C)C)C(=O)N[C@H](C(=O)N[C@@H](CCCNC(=N)N)C(=O)N[C@@H](C)C(=O)N[C@@H](C)C(=O)N[C@H]1CSCc2cccc(c2)CSC[C@@H](C(=O)N[C@@H](CCCCN)C(=O)N[C@@H](CC(N)=O)C(=O)N[C@@H](CCC(=O)O)C(=O)N[C@@H](C)C(=O)N[C@@H](C)C(=O)N[C@@H](CC(C)C)C(=O)N[C@@H](CCCNC(=N)N)C(=O)N[C@@H](CCC(=O)O)C(=O)N[C@@H](CC(C)C)C(N)=O)NC(=O)[C@H](CCC(N)=O)NC(=O)[C@H](CCC(N)=O)NC(=O)[C@H](CCC(=O)O)NC1=O)[C@@H](C)CC (Ac-IEALIRAACEQQCKNEAALREL-NH2; linker 9-13 via mXylylene) | –
0.171 | CC[C@H](C)[C@H](NC(C)=O)C(=O)N[C@@H](CCC(=O)O)C(=O)N[C@@H](C)C(=O)N[C@@H](CC(C)C)C(=O)N[C@H](C(=O)N[C@@H](CCCNC(=N)N)C(=O)N[C@@H](C)C(=O)N[C@@H](C)C(=O)N[C@@H](CCC(N)=O)C(=O)N[C@H]1CSCc2cccc(c2)CSC[C@@H](C(=O)N[C@@H](CC(N)=O)C(=O)N[C@@H](CCC(=O)O)C(=O)N[C@@H](C)C(=O)N[C@@H](C)C(=O)N[C@@H](CC(C)C)C(=O)N[C@@H](CCCNC(=N)N)C(=O)N[C@@H](CCC(=O)O)C(=O)N[C@@H](CC(C)C)C(N)=O)NC(=O)[C@H](CCC(=O)O)NC(=O)[C@H](CCC(N)=O)NC(=O)[C@H](CCC(N)=O)NC1=O)[C@@H](C)CC (Ac-IEALIRAAQCQQECNEAALREL-NH2; linker 10-14 via mXylylene) | –
0.132 | CC[C@H](C)[C@H](NC(C)=O)C(=O)N[C@@H](CCC(=O)O)C(=O)N[C@@H](C)C(=O)N[C@@H](CC(C)C)C(=O)N[C@H](C(=O)N[C@@H](CCCNC(=N)N)C(=O)N[C@@H](C)C(=O)N[C@@H](C)C(=O)N[C@@H](CCC(N)=O)C(=O)N[C@@H](CCC(=O)O)C(=O)N[C@@H](CCC(N)=O)C(=O)N[C@@H](CCC(N)=O)C(=O)N[C@H]1CSCc2cccc(c2)CSC[C@@H](C(=O)N[C@@H](C)C(=O)N[C@@H](CC(C)C)C(=O)N[C@@H](CCCNC(=N)N)C(=O)N[C@@H](CCC(=O)O)C(=O)N[C@@H](CC(C)C)C(N)=O)NC(=O)[C@H](CCC(=O)O)NC(=O)[C@H](CC(N)=O)NC(=O)[C@H](CCCCN)NC1=O)[C@@H](C)CC (Ac-IEALIRAAQEQQCKNECALREL-NH2; linker 13-17 via mXylylene) | –
0.166 | CC[C@H](C)[C@H](NC(C)=O)C(=O)N[C@@H](CCC(=O)O)C(=O)N[C@@H](C)C(=O)N[C@@H](CC(C)C)C(=O)N[C@H](C(=O)N[C@@H](CCCNC(=N)N)C(=O)N[C@@H](C)C(=O)N[C@@H](C)C(=O)N[C@@H](CCC(N)=O)C(=O)N[C@@H](CCC(=O)O)C(=O)N[C@@H](CCC(N)=O)C(=O)N[C@@H](CCC(N)=O)C(=O)N[C@@H](CCC(=O)O)C(=O)N[C@@H](CCCCN)C(=O)N[C@@H](CC(N)=O)C(=O)N[C@H]1CSCc2cccc(c2)CSC[C@@H](C(=O)N[C@@H](CCC(=O)O)C(=O)N[C@@H](CC(C)C)C(N)=O)NC(=O)[C@H](CC(C)C)NC(=O)[C@H](C)NC(=O)[C@H](C)NC1=O)[C@@H](C)CC (Ac-IEALIRAAQEQQEKNCAALCEL-NH2; linker 16-20 via mXylylene) | –
0.022 | CC[C@H](C)[C@H](NC(C)=O)C(=O)N[C@@H](CCC(=O)O)C(=O)N[C@@H](C)C(=O)N[C@@H](CC(C)C)C(=O)N[C@H](C(=O)NC1CCSCc2cccc(c2)CSCCC(C(=O)N[C@@H](CCC(N)=O)C(=O)N[C@@H](CCC(N)=O)C(=O)N[C@@H](CCCNC(=N)N)C(=O)N[C@@H](CCCCN)C(=O)N[C@@H](CC(N)=O)C(=O)N[C@@H](CCC(=O)O)C(=O)N[C@@H](CCC(=O)O)C(=O)N[C@@H](C)C(=O)N[C@@H](CC(C)C)C(=O)N[C@@H](CCCNC(=N)N)C(=O)N[C@@H](CCC(=O)O)C(=O)N[C@@H](CC(C)C)C(N)=O)NC(=O)[C@H](CCC(N)=O)NC(=O)[C@H](C)NC(=O)[C@H](C)NC1=O)[C@@H](C)CC (some centres not stated) (Ac-IEALI[ξhCys]AAQ[ξhCys]QQRKNEEALREL-NH2; linker 6-10 via mXylylene) | –
– | CC[C@H](C)[C@H](NC(C)=O)C(=O)N[C@@H](CCC(=O)O)C(=O)N[C@@H](CCC(=O)O)C(=O)N[C@@H](CC(C)C)C(=O)N[C@H](C(=O)NC1CCSCc2cccc(c2)CSCCC(C(=O)N[C@@H](CCC(N)=O)C(=O)N[C@@H](CCC(N)=O)C(=O)N[C@@H](CCCNC(=N)N)C(=O)N[C@@H](CCCCN)C(=O)N[C@@H](CC(N)=O)C(=O)N[C@@H](CCC(=O)O)C(=O)N[C@@H](CCC(=O)O)C(=O)N[C@@H](C)C(=O)N[C@@H](CC(C)C)C(=O)N[C@@H](CCCNC(=N)N)C(=O)N[C@@H](CCC(=O)O)C(=O)N[C@@H](CC(C)C)C(N)=O)NC(=O)[C@H](CCC(N)=O)NC(=O)[C@H](C)NC(=O)[C@H](C)NC1=O)[C@@H](C)CC (some centres not stated) (Ac-IEELI[ξhCys]AAQ[ξhCys]QQRKNEEALREL-NH2; linker 6-10 via mXylylene) | EC50 [2]: 0.0071 µM; EC50 [3]: 0.0072 µM
0.011 | H-EMTWEEWEKKIEEYTKKIEEILK-OH | EC50 [4]: 0.0053 µM; EC50 [5]: 0.011 µM; EC50 [6]: 0.0017 µM
0.127 | Ac-IEALIRAAQEQQEKNEAALREL-NH2 | –
0.136 | CC[C@H](C)[C@H](NC(C)=O)C(=O)N[C@@H](CCC(=O)O)C(=O)N[C@H]1CSCc2cccc(c2)CSC[C@@H](C(=O)N[C@@H](C)C(=O)N[C@@H](CCC(N)=O)C(=O)N[C@@H](CCC(=O)O)C(=O)N[C@@H](CCC(N)=O)C(=O)N[C@@H](CCC(N)=O)C(=O)N[C@@H](CCC(=O)O)C(=O)N[C@@H](CCCCN)C(=O)N[C@@H](CC(N)=O)C(=O)N[C@@H](CCC(=O)O)C(=O)N[C@@H](C)C(=O)N[C@@H](C)C(=O)N[C@@H](CC(C)C)C(=O)N[C@@H](CCCNC(=N)N)C(=O)N[C@@H](CCC(=O)O)C(=O)N[C@@H](CC(C)C)C(N)=O)NC(=O)[C@H](CCCNC(=N)N)NC(=O)[C@H]([C@@H](C)CC)NC(=O)[C@H](CC(C)C)NC1=O (Ac-IECLIRCAQEQQEKNEAALREL-NH2; linker 3-7 via mXylylene) | –
